Laboratory results as given in paper PMC4603696, “Discovery and characterization of novel small-molecule inhibitors targeting nicotinamide phosphoribosyltransferase” (Scientific Reports, 2015).

Experiments:
HepG2 cells [1] = assay: Cell counting kit-8 (CCK-8) cell viability assay in HepG2; assay type: cell-based, human
Method: Cellc ount ing k it-8 (CCK-8) assa y
Cell vi ability was de termine d by ou r previ ous method9 usi ng the Cell Counting Kit-8 (CCK -8, Dojindo, Ja pa n). In hu man he pa tocellu lar carcinom a cell line HepG 2, cells were seede d in 96-well plate and starve d for ove r 12 h with se rum-free DMEM at 60~ 70% conf lue nc y, the n trea ted wit h com pounds or ve hicle for 24 h to 72 h accor ding to expe riment requi rement s. […]
10 μl CCK-8 sol ution was adde d to the cul ture medium and inc ub ated at 37 °C for 1 h. Th e absor banc e at 450 nm (A450) was de tected by a pl ate reade r. Each e xperi ment w as carr ied out i n t riplic ate i n thr ee r eplic ate w ells.

HepG2 cells [2] = assay: Sulforhodamine B protein staining (SRB) assay in HepG2; assay type: cell-based, human; details: for IC50: Homo sapiens
Method: (§1) Sulfor hod am ine B p rotei n st ai ning (SRB) assay
(§2) Cell pr oliferat ion was eva lua ted by sul for hod amine B pr ot ein st aini ng (SRB) assa y10-12.
(§3) Briefly, cel ls were se ede d int o 96-well pl ates, cul tur ed overni ght , and trea ted with correspond ing com poun ds for 72 h. Cells were the n fixe d with 10% trichl or oa cetic aci d and st ained with sul for hoda mine B (Sigm a). Sul for hoda mine B in the cells was di sso lved in 10 mmol/L Tris-HCl and was measured at 515 nm usi ng a multiw ell spect ropho tometer (VERSA max, Mol ecul ar Devi ces, Sunnyva le, CA). The inhi bi tion rat e on cell pr olif eratio n was cal culated for each well as (A515contr ol cells-A 515tr eated cells)/A515contr ol cells×100 % (A515:
(§4) OD va lue at 515 nm ). The averag e IC50 va lue s were de termine d by Logit method from at leas t t hr eei nde pe nde nt test s.

A549 cells = assay: SRB assay in A549; assay type: cell-based, human
Method: as §1, §2, §3, §4

HCT116 cells = assay: SRB assay in HCT116; assay type: cell-based; details: Homo sapiens, HCT-116, read-out: anti-proliferation IC50, initial screen
Method: as §1, §2, §3, §4

[3] = test system: osteosarcoma cell line U2OS; assay: SRB assay in U2OS; assay type: cell-based, human; details: 72 hours
Method: as §1, §2, §3, §4

NAMPT = details: read-out: biochemical potency IC50; reported independently by Zheng et al. ref 19, 22; cited from earlier work

O=S(=O)(c1ccc(NC(=S)NCc2cccnc2)cc1)N1CCCCC1 [MS0]
cell viability (CCK-8), time course (HepG2 cells [1]; HepG2, 10 μM, treatment for ≥36 hours): markedly inhibited | cell viability (CCK-8) (HepG2 cells [1]; HepG2, 24 hours, up to 10 μM): almost had no changes | IC50 (HepG2 cells [1]; Homo sapiens, HepG2, 48 h, read-out: CCK-8 assay in HepG2: IC50): 703 ± 95.4 nM | growth inhibition (SRB, in words) (HepG2 cells [2]; HepG2, 72 hours): potent growth inhibition | IC50 (HepG2 cells [2]; HepG2, 72 h, read-out: SRB assay in HepG2: IC50, HepG2, second test, 2-fold concentration gradient, 72 hours): ~3000 nM | IC50 (HepG2 cells [2]; HepG2, read-out: anti-proliferation IC50, initial screen, HepG2, SRB, 10-fold concentration gradient): < 5000 nM | growth inhibition (SRB, in words) (A549 cells; A549, 72 hours): potent growth inhibition | IC50 (A549 cells; Homo sapiens, A549, read-out: anti-proliferation IC50, initial screen): < 5000 nM | IC50 (HCT116 cells): < 5000 nM | growth inhibition (SRB, in words) [3]: potent growth inhibition | IC50 (NAMPT): […]
